According to US20240285614A1, “PHENOL RIBONUCLEOTIDE REDUCTASE (RNR) INHIBITORS AND USES THEREOF” (Boundless Bio, Inc., priority 2023, published 2024):

How the values were obtained:
RNR (RNR1:RNR2 1:1) = target: T1, RNR (RNR1:RNR2 1:1) (Homo sapiens, UniProt P23921+P31350); assay: RNR enzyme activity, rapid-fire mass spectrometry (RF/MS) assay; type: biochemical; conditions: RNR 50 nM, 1:1 (RNR1:RNR2); CDP 5 μM; ATP 1 mM; 37° C., 45 min; compounds screened up to 50 μM
T1 sequence (P23921 1-792): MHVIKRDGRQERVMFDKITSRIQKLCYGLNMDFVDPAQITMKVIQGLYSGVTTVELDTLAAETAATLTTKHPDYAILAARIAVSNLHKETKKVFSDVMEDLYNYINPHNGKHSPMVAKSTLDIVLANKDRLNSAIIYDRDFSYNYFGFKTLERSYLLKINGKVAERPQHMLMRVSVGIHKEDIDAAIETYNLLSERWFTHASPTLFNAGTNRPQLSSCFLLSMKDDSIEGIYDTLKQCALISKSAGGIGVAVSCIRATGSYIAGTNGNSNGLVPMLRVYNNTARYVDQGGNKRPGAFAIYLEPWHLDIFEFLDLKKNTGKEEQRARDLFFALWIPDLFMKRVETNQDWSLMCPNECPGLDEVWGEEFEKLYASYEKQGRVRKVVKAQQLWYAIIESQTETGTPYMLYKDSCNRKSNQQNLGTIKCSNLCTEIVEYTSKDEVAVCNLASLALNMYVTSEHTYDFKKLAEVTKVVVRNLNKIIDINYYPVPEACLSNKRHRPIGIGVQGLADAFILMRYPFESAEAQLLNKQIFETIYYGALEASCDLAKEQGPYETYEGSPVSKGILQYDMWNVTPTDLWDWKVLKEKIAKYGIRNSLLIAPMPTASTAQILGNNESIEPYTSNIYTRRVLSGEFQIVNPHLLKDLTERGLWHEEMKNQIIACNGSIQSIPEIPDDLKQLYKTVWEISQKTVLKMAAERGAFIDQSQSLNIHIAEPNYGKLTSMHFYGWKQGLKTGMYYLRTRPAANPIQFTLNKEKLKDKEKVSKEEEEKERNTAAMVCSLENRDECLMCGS
T1 sequence (P31350 1-389): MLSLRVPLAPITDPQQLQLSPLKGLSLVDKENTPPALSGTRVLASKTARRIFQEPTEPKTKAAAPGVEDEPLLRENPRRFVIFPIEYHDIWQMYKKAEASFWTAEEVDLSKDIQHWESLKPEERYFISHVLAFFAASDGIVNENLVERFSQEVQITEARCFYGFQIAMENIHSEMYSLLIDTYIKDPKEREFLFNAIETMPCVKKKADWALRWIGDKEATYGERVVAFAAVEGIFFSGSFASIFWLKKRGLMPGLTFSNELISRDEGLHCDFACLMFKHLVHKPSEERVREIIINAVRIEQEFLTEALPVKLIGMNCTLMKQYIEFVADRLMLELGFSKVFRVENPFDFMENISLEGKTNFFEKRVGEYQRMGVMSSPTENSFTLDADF
Protocol: A rapid-fire mass spectrometry (RF/MS) assay was used to assess RNR enzyme activity using a 384 well plate and a robotic platform.
The plate layout included two validated reference compounds (Triapine (3-AP) and Hydroxyurea (HU)): • A dose response in duplicate, top concentration: 5 μM (3-AP) and 250 μM (HU), semi-log • dilutions. • Spike wells in triplicate randomly spotted at four concentrations: • 250 μM, 100 μM, 30 μM and 2 μM for HU • 5 μM, 2 μM, 0.6 μM and 0.04 μM for 3-AP
First, the multidrop pipes were saturated for 30 minutes with enzymatic solution. Then 30 μL of Stop solution was distributed in column 24. Next, 15 μL of enzyme was distributed in column 1 to 24. Next, a pre-incubation step of 15 minutes at room temperature occurred, followed by distribution of 15 μL of substrate solution (column 1 to 24). Next, the plate was incubated for 45 minutes at 37° C. 30 μL of Stop solution was distributed to columns 1 to 23.
The final parameters for the enzyme reactions were: • Incubation: 37° C., 45 min • [CDP]: 5 μM: [ATP]: 1 mM; [NADPH]: No • [RNR]final: 50 nM with 1:1 (RNR1:RNR2) ratio • Final volume: 30 μL • Stop solution: 6% HCOOH containing 2 μM of 15

[1] = system: pCHK1 (S345) in Colo320 DM cells; assay: Alphalisa assay, detection of pCHK1 (S345) in Colo320 DM cells; type: cell-based; conditions: Homo sapiens, COLO 320DM, compound incubation overnight (approximately 16 hours)
Protocol: Colo320 DM cells (ATCC #CCL-220, derived from human colorectal adenocarcinoma, Dukes' type C) were seeded on a 96-well, cell culture treated assay plate at a density of 50,000 cells/well in 200 μL of RPMI-1640 media supplemented with 10% Fetal Bovine Serum and incubated at 37° C. overnight. The following day, test compound dilutions were added directly to the plated cells by a Tecan digital dispenser to a final DMSO concentration of <0.5%, and incubated at 37° C. overnight (approximately 16 hours). The following day all cull culture media was removed from the cells. 75 μL of 1× AlphaLisa lysis buffer was added to each well and plates were agitated on a shaker for 30 minutes at room temperature. The lysis of cells and detection of pCHK1 (S345) were performed with regents contained within the AlphaLisa Sure Fire assay kit (Perkin Elmer #ALSU-PCHK1-A) according to the manufacturer's instructions. 10 μL of each lysate was then transferred to a white, 384-well assay plate (Perkin Elmer #6008280), 5 μL of Acceptor mix was then added to each well of lysate in the white, 384-well assay plate and incubated in the dark at room temperature for 60 minutes. 5 μL of Donor mix was then added to each well of the white, 384-well assay plate in subdued light and incubated at room temperature for 60 minutes. Plates were read on an Alpha Technology-compatible plate reader using standard AlphaLisa settings.

SMILES	IC50 (RNR (RNR1:RNR2 1:1)) [nM]	IC50 [1] [nM]
CN(c1ccc(O)cc1)C1CCN(S(=O)(=O)c2ccc3cc[nH]c3c2)C1 (racemic) [compound 20, rac-(R)-4-((1-((1H-indol-6-yl)sulfonyl)pyrrolidin-3-yl)(methyl)amino)phenol]	≤ 50	≤ 1000
CN(c1ccc(O)cc1)C1CCN(S(=O)(=O)c2ccc3[nH]ccc3c2)C1 (racemic) [compound 30, rac-(R)-4-((1-((1H-indol-5-yl)sulfonyl)pyrrolidin-3-yl)(methyl)amino)phenol]	≤ 50	≤ 1000
CN(c1ccc(O)cc1)C1CCN(S(=O)(=O)c2cccc3[nH]ccc23)C1 (racemic) [compound 31, rac-(R)-4-((1-((1H-indol-4-yl)sulfonyl)pyrrolidin-3-yl)(methyl)amino)phenol]	≤ 50	1000 to 5000
CN(c1ccc(O)cc1)C1CCN(S(=O)(=O)c2cc3[nH]c(Cl)cc3cc2F)C1 (racemic) [compound 32, rac-(R)-4-((1-((2-chloro-5-fluoro-1H-indol-6-yl)sulfonyl)pyrrolidin-3-yl)(methyl)amino)phenol]		1000 to 5000
C[C@@H]1[C@H](Nc2ccc(O)cc2)CN1S(=O)(=O)c1ccc2cc[nH]c2c1 (racemic) [compound 36, rac-4-(((2R,3R)-1-((1H-indol-6-yl)sulfonyl)-2-methylazetidin-3-yl)amino)phenol]	100 to 500	1000 to 5000
C[C@@H]1C[C@H](N(C)c2ccc(O)cc2)CN1S(=O)(=O)c1ccc2cc[nH]c2c1 (racemic) [compound 37, rac-4-(((3R,5S)-1-((1H-indol-6-yl)sulfonyl)-5-methylpyrrolidin-3-yl)(methyl)amino)phenol]	≤ 50	1000 to 5000
CN(c1ccc(O)cc1)C1CN(S(=O)(=O)c2ccc3cc[nH]c3c2)C2(CC2)C1 (racemic) [compound 38, rac-(R)-4-((4-((1H-indol-6-yl)sulfonyl)-4-azaspiro[2.4]heptan-6-yl)(methyl)amino)phenol]	≤ 50	1000 to 5000
C[C@@H]1CN(S(=O)(=O)c2ccc3cc[nH]c3c2)C[C@H]1N(C)c1ccc(O)cc1 (racemic) [compound 39, rac-4-(((3R,4S)-1-((1H-indol-6-yl)sulfonyl)-4-methylpyrrolidin-3-yl)(methyl)amino)phenol]	≤ 50	1000 to 5000
C[C@H]1C[C@H](N(C)c2ccc(O)cc2)CN1S(=O)(=O)c1ccc2cc[nH]c2c1 (racemic) [compound 48, rac-4-(((3R,5R)-1-((1H-indol-6-yl)sulfonyl)-5-methylpyrrolidin-3-yl)(methyl)amino)phenol]		1000 to 5000
Cn1ccc2cccc(S(=O)(=O)N3CCN(c4ccc(O)cc4)CC3)c21 [compound 1, 4-(4-((1-methyl-1H-indol-7-yl)sulfonyl)piperazin-1-yl)phenol]	≤ 50	5000 to 10000
O=S(=O)(c1ccc2cc[nH]c2c1)N1CCN(c2ccc(O)cc2)CC1 [compound 2, 4-(4-((1H-indol-6-yl)sulfonyl)piperazin-1-yl)phenol]	50 to 100	1000 to 5000
Cn1ccc2ccc(S(=O)(=O)N3CCN(c4ccc(O)cc4)CC3)cc21 [compound 3, 4-(4-((1-methyl-1H-indol-6-yl)sulfonyl)piperazin-1-yl)phenol]	100 to 500	5000 to 10000
Cn1ccc2cc(S(=O)(=O)N3CCN(c4ccc(O)cc4)CC3)ccc21 [compound 4, 4-(4-((1-methyl-1H-indol-5-yl)sulfonyl)piperazin-1-yl)phenol]	100 to 500	5000 to 10000
O=S(=O)(c1cccc2cc[nH]c12)N1CCN(c2ccc(O)cc2)CC1 [compound 5, 4-(4-((1H-indol-7-yl)sulfonyl)piperazin-1-yl)phenol]	100 to 500	1000 to 5000
Cn1ccc2cc(S(=O)(=O)N3CCN(c4ccc(O)cc4)CC3)cnc21 [compound 6, 4-(4-((1-methyl-1H-pyrrolo[2,3-b]pyridin-5-yl)sulfonyl)piperazin-1-yl)phenol]	100 to 500	10000 to 50000
O=S(=O)(c1cccc2[nH]ccc12)N1CCN(c2ccc(O)cc2)CC1 [compound 7, 4-(4-((1H-indol-4-yl)sulfonyl)piperazin-1-yl)phenol]	50 to 100	1000 to 5000
O=S(=O)(c1ccc2cc[nH]c2c1)N1CC=C(c2ccc(O)cc2)CC1 [compound 8, 4-[1-(1H-indol-6-ylsulfonyl)-3,6-dihydro-2H-pyridin-4-yl]phenol]		1000 to 5000
O=S(=O)(c1ccc2[nH]ccc2c1)N1CCN(c2ccc(O)cc2)CC1 [compound 9, 4-(4-((1H-indol-5-yl)sulfonyl)piperazin-1-yl)phenol]	100 to 500	5000 to 10000
O=S(=O)(NC1CN(c2ccc(O)cc2)C1)c1ccc2cc[nH]c2c1 [compound 10, N-(1-(4-hydroxyphenyl)azetidin-3-yl)-1H-indole-6-sulfonamide]	50 to 100	1000 to 5000
O=S(=O)(c1ccc2cc[nH]c2c1)N1CC(Nc2ccc(O)cc2)C1 [compound 11, 4-((1-((1H-indol-6-yl)sulfonyl)azetidin-3-yl)amino)phenol]	≤ 50	1000 to 5000
CN(C1CCN(c2ccc(O)cc2)CC1)S(=O)(=O)c1ccc2cc[nH]c2c1 [compound 12, N-(1-(4-hydroxyphenyl)piperidin-4-yl)-N-methyl-1H-indole-6-sulfonamide]	≤ 50	5000 to 10000
CN(c1ccc(O)cc1)C1CN(S(=O)(=O)c2ccc3cc[nH]c3c2)C1 [compound 13, 4-((1-((1H-indol-6-yl)sulfonyl)azetidin-3-yl)(methyl)amino)phenol]	≤ 50	≤ 1000
O=S(=O)(c1ccc2cc[nH]c2c1)N1CCN(c2ccc(O)cc2)CC12CC2 [compound 33, 4-(4-((1H-indol-6-yl)sulfonyl)-4,7-diazaspiro[2.5]octan-7-yl)phenol]		1000 to 5000
O=C1C[C@@H]2CN(S(=O)(=O)c3ccc4cc[nH]c4c3)C[C@H](C1)N2c1ccc(O)cc1 [compound 42, (1R,5S)-3-((1H-indol-6-yl)sulfonyl)-9-(4-hydroxyphenyl)-3,9-diazabicyclo[3.3.1]nonan-7-one]		1000 to 5000
O=S(=O)(c1ccc2cc[nH]c2c1)N1CCC2C1CCCN2c1ccc(O)cc1 (centres unmarked) [compound 49, 4-(1-((1H-indol-6-yl)sulfonyl)octahydro-4H-pyrrolo[3,2-b]pyridin-4-yl)phenol]		1000 to 5000
